Assay [1] concerns Zymoseptoria tritici. Nature of the assay: Leaf Blotch of Wheat (SEPTTR) fungicidal activity. The assay is classed as in vivo. The following applies: wheat leaf blotch; for pest or weed control at 121.5 g/ha: Low Volume application, 121.5 g/H; for pest or weed control at 100 ppm: High Volume application. The method, boiled down:
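Wheat seedlings (Yuma, first leaf emerged) were sprayed to run-off with compound in acetone/water containing Triton X-100 and inoculated with Z. tritici spores before or after treatment. Percent disease control comes from 0–100% severity on treated versus untreated plants.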

Assay [2] deals with Puccinia triticina. Nature of the assay: Wheat Brown Rust (PUCCRT) fungicidal activity. The assay is classed as in vivo. The following applies: for pest or weed control at 121.5 g/ha: Low Volume application, 121.5 g/H; for pest or weed control at 100 ppm: High Volume application. The method in brief:
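Yuma wheat seedlings at first-leaf stage sprayed to run-off with acetone/water (Triton X-100) solutions, inoculated with P. triticina spores before or after treatment. Overnight dark dew at 22° C, then greenhouse at 24° C; percent disease control from severity versus untreated plants.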

Setting [3] is: 24 h, 1 day protectant, read-out: SEPTTR disease control, 1DP (1 Day Protectant).
[4] abbreviates: 72 h, 3 day curative, read-out: SEPTTR disease control, 3DC (3 Day Curative).
[5] abbreviates: 24 h, 1 day protectant, read-out: PUCCRT disease control, 1DP (1 Day Protectant).
Setting [6] is: 72 h, 3 day curative, read-out: PUCCRT disease control, 3DC (3 Day Curative).

Each structure is given as a SMILES string. Read-outs that look alike come from different tables or passages of the source. Where only a bound is given, the exact number is not on record here.

As to `COc1ccnc(C(=O)N[C@H]2COCC[C@H](Cc3ccc(F)cc3)[C@@H](OCC3CC3)[C@H](C)OC2=O)c1OCOC(C)=O` [Compound 74], the pest or weed control at 121.5 g/ha in assay [1] (setting [3]) is greater than 80%; in assay [1] (setting [4]) it was less than 80%; in assay [2] (setting [5]), greater than 80%; in assay [2] (setting [6]), greater than 80%.

As for `COc1ccnc(C(=O)N[C@H]2COCC[C@H](Cc3ccc(F)cc3)[C@@H](OC(=O)C(C)C)[C@H](C)OC2=O)c1OC(C)=O` [Compound 75], the pest or weed control at 121.5 g/ha is greater than 80% in assay [1] (setting [3]), less than 80% in assay [1] (setting [4]), greater than 80% in assay [2] (setting [5]) and greater than 80% in assay [2] (setting [6]).

In the case of `COc1ccnc(C(=O)N[C@H]2COCC[C@H](Cc3ccc(F)cc3)[C@@H](OC(=O)C(C)C)[C@H](C)OC2=O)c1OCOC(C)=O` [Compound 76], the pest or weed control at 121.5 g/ha in assay [1] (setting [3]), in assay [1] (setting [4]), in assay [2] (setting [5]) and in assay [2] (setting [6]) was greater than 80% in each case.

On to `COc1ccnc(C(=O)N[C@H]2COCC[C@H](Cc3ccc(F)cc3)[C@@H](OCC3CC3)[C@H](C)OC2=O)c1OC(C)=O` [Compound 77], for which the pest or weed control at 121.5 g/ha is greater than 80% in assay [1] (setting [3]), less than 80% in assay [1] (setting [4]), greater than 80% in assay [2] (setting [5]) and greater than 80% in assay [2] (setting [6]).

In the case of `CCOCC(=O)OCOc1c(OC)ccnc1C(=O)N[C@H]1COCC[C@H](Cc2ccc(F)cc2)[C@@H](OCC2CC2)[C@H](C)OC1=O` [Compound 78], the pest or weed control at 121.5 g/ha in assay [1] (setting [3]) is greater than 80%; in assay [1] (setting [4]), less than 80%; in assay [2] (setting [5]), greater than 80%; in assay [2] (setting [6]), greater than 80%.

For the molecule `CC[C@H]1CCOC[C@H](NC(=O)c2nccc(OC)c2OCOC(C)=O)C(=O)O[C@@H](C)[C@@H]1OC(=O)C1CC1` [Compound 79], the pest or weed control at 121.5 g/ha in assay [1] (setting [3]), in assay [2] (setting [5]) and in assay [2] (setting [6]) was greater than 80% in each case.

For the molecule `CC[C@H]1CCOC[C@H](NC(=O)c2nccc(OC)c2OC(C)=O)C(=O)O[C@@H](C)[C@@H]1OC(=O)c1ccccc1` [Compound 80], the pest or weed control at 121.5 g/ha in assay [1] (setting [3]) is greater than 80%; in assay [1] (setting [4]), less than 80%; in assay [2] (setting [5]) it was greater than 80%; in assay [2] (setting [6]), greater than 80%.

As for `COc1ccnc(C(=O)N[C@H]2COCC[C@H](OCc3ccccc3)[C@@H](OCc3ccccc3)[C@H](C)OC2=O)c1O` [Compound 81], the pest or weed control at 100 ppm in assay [1] (setting [3]), in assay [2] (setting [5]) and in assay [2] (setting [6]) was greater than 80% each time.

With `CCCCO[C@H]1CCOC[C@H](NC(=O)c2nccc(OC)c2O)C(=O)O[C@@H](C)[C@@H]1OCc1ccccc1` [Compound 82], the pest or weed control at 100 ppm in assay [1] (setting [3]) was less than 80%; in assay [1] (setting [4]), greater than 80%; in assay [2] (setting [5]) it was greater than 80%; in assay [2] (setting [6]) it was greater than 80%.

For `CCCCO[C@H]1CCOC[C@H](NC(=O)c2nccc(OC)c2O)C(=O)O[C@@H](C)[C@@H]1OC(=O)C(C)C` [Compound 83], the pest or weed control at 100 ppm in assay [1] (setting [3]) was less than 80%; in assay [1] (setting [4]) it was greater than 80%; in assay [2] (setting [5]), greater than 80%; in assay [2] (setting [6]), greater than 80%.

In the case of `CCCCO[C@H]1CCOC[C@H](NC(=O)c2nccc(OC)c2O)C(=O)O[C@@H](C)[C@@H]1OC(=O)c1ccccc1` [Compound 84], the pest or weed control at 100 ppm in assay [1] (setting [3]) was less than 80%; in assay [1] (setting [4]), greater than 80%; in assay [2] (setting [5]) it was greater than 80%; in assay [2] (setting [6]), greater than 80%.

As to `CCCCO[C@H]1CCOC[C@H](NC(=O)c2nccc(OC)c2O)C(=O)O[C@@H](C)[C@@H]1OC(=O)C1CC1` [Compound 85], the pest or weed control at 100 ppm was less than 80% in assay [1] (setting [3]), greater than 80% in assay [1] (setting [4]), greater than 80% in assay [2] (setting [5]) and greater than 80% in assay [2] (setting [6]).

Turning to `COc1ccnc(C(=O)N[C@H]2COCC[C@H](OCC(C)C)[C@@H](OCC(C)C)[C@H](C)OC2=O)c1O` [Compound 86], the pest or weed control at 100 ppm was less than 80% in assay [1] (setting [3]), greater than 80% in assay [1] (setting [4]), greater than 80% in assay [2] (setting [5]) and less than 80% in assay [2] (setting [6]).

Consider `CCCCO[C@H]1CCOC[C@H](NC(=O)c2nccc(OC)c2O)C(=O)O[C@@H](C)[C@@H]1OCC(C)C` [Compound 87], for which the pest or weed control at 100 ppm in assay [1] (setting [3]) was greater than 80%; in assay [1] (setting [4]), less than 80%; in assay [2] (setting [5]), greater than 80%; in assay [2] (setting [6]), greater than 80%.

Turning to `COc1ccnc(C(=O)N[C@H]2CCCC[C@H](OCc3ccccc3)[C@@H](OCc3ccccc3)[C@H](C)OC2=O)c1O` [Compound 88], the pest or weed control at 100 ppm is greater than 80% in assay [1] (setting [3]), less than 80% in assay [1] (setting [4]) and greater than 80% in assay [2] (setting [5]).

`COc1ccnc(C(=O)N[C@H]2CCCC[C@H](OCC(C)C)[C@@H](OCC(C)C)[C@H](C)OC2=O)c1O` [Compound 89]: the pest or weed control at 100 ppm in assay [1] (setting [3]), in assay [1] (setting [4]) and in assay [2] (setting [5]) was less than 80% in each case.

Turning to `COc1ccnc(C(=O)N[C@H]2CCCC[C@H](Oc3ccccc3)[C@@H](OCC(C)C)[C@H](C)OC2=O)c1O` [Compound 90], the pest or weed control at 100 ppm in assay [1] (setting [3]) is greater than 80%; in assay [1] (setting [4]) it was less than 80%; in assay [2] (setting [5]), greater than 80%; in assay [2] (setting [6]) it was less than 80%.

Turning to `COc1ccnc(C(=O)N[C@H]2CCCC[C@H](OC)[C@@H](Oc3ccccc3)[C@H](C)OC2=O)c1O` [Compound 91], the pest or weed control at 100 ppm in assay [1] (setting [3]), in assay [1] (setting [4]), in assay [2] (setting [5]) and in assay [2] (setting [6]) was greater than 80% throughout.

As for `COc1ccnc(C(=O)N[C@H]2CCCC[C@H](OC)[C@@H](OCC(C)C)[C@H](C)OC2=O)c1O` [Compound 92], the pest or weed control at 100 ppm in assay [1] (setting [3]), in assay [1] (setting [4]), in assay [2] (setting [5]) and in assay [2] (setting [6]) was greater than 80% throughout.

In the case of `COc1ccnc(C(=O)N[C@H]2CCCC[C@H](OCC(C)C)[C@@H](Oc3ccccc3)[C@H](C)OC2=O)c1O` [Compound 93], the pest or weed control at 100 ppm in assay [1] (setting [3]) was greater than 80%; in assay [1] (setting [4]), less than 80%; in assay [2] (setting [5]) it was greater than 80%; in assay [2] (setting [6]), greater than 80%.

As to `CCCCCO[C@H]1[C@H](C)OC(=O)[C@@H](NC(=O)c2nccc(OC)c2O)CCCC[C@@H]1OC(=O)c1ccccc1` [Compound 94], the pest or weed control at 100 ppm was greater than 80% in assay [1] (setting [3]), less than 80% in assay [1] (setting [4]), greater than 80% in assay [2] (setting [5]) and less than 80% in assay [2] (setting [6]).

`CCCCCO[C@H]1[C@H](C)OC(=O)[C@@H](NC(=O)c2nccc(OC)c2O)CCCC[C@@H]1Oc1ccccc1` [Compound 96]: the pest or weed control at 100 ppm in assay [1] (setting [3]) is less than 80%; in assay [1] (setting [4]), less than 80%; in assay [2] (setting [5]) it was greater than 80%; in assay [2] (setting [6]), less than 80%.

For the molecule `CCCO[C@H]1[C@H](C)OC(=O)[C@@H](NC(=O)c2nccc(OC)c2O)CCCC[C@@H]1Oc1ccccc1` [Compound 97], the pest or weed control at 100 ppm in assay [1] (setting [3]) was greater than 80%; in assay [1] (setting [4]) it was less than 80%; in assay [2] (setting [5]) it was greater than 80%; in assay [2] (setting [6]), greater than 80%.

On to `COc1ccnc(C(=O)N[C@H]2CCCC[C@H](Oc3ccccc3)[C@@H](Oc3ccccc3)[C@H](C)OC2=O)c1O` [Compound 98], for which the pest or weed control at 100 ppm is greater than 80% in assay [1] (setting [3]), less than 80% in assay [1] (setting [4]), greater than 80% in assay [2] (setting [5]) and less than 80% in assay [2] (setting [6]).

For `CCCO[C@H]1CCCC[C@H](NC(=O)c2nccc(OC)c2O)C(=O)O[C@@H](C)[C@@H]1Oc1ccccc1` [Compound 100], the pest or weed control at 100 ppm in assay [1] (setting [3]), in assay [1] (setting [4]), in assay [2] (setting [5]) and in assay [2] (setting [6]) was greater than 80% each time.

`COc1ccnc(C(=O)N[C@H]2COCC[C@H](Cc3ccccc3)[C@@H](OCC(C)C)[C@H](C)OC2=O)c1O` [Compound 101]: the pest or weed control at 100 ppm in assay [1] (setting [3]), in assay [1] (setting [4]), in assay [2] (setting [5]) and in assay [2] (setting [6]) was less than 80% in each case.

Regarding `COc1ccnc(C(=O)N[C@H]2CCCC[C@H](Cc3ccccc3)[C@@H](OCC(C)C)[C@H](C)OC2=O)c1O` [Compound 102], the pest or weed control at 100 ppm in assay [1] (setting [3]) is greater than 80%; in assay [2] (setting [5]) it was greater than 80%; in assay [2] (setting [6]) it was less than 80%.

For `CCC[C@H]1CCCC[C@H](NC(=O)c2nccc(OC)c2O)C(=O)O[C@@H](C)[C@@H]1OC(=O)C(C)C` [Compound 103], the pest or weed control at 100 ppm in assay [1] (setting [3]) is less than 80%; in assay [2] (setting [5]), greater than 80%; in assay [2] (setting [6]) it was less than 80%.

For the origin of these results see patent US20180002319A1, “MACROCYCLIC PICOLINAMIDE COMPOUNDS WITH FUNGICIDAL ACTIVITY” (DOW AGROSCIENCES LLC, priority 2014, published 2018).
